One data set has as its system MRC-5 human normal cells. The format is cell-based.
For data set [1], the system named is A549 lung cancer xenograft tumor tissue. Set-up: species or system SCID mice. Conditions: mouse, in vivo.
Data set [2] concerns NIH:OVCAR-3 cisplatin-resistant human ovarian cancer cells. Kind of data set: cells. Format: cell-based.
For data set [3] the following is noted: mouse, in vivo.
The subject of data set [4] is HeLa, ME-180, MDA-MB-231, A549 and NIH:OVCAR-3 cancer cells. Kind of data set: cells. Conditions: Homo sapiens, 72 h, read-out: IC50 against cancer cells. Format: cell-based.
The conditions of data set [5]: mouse, in vivo. The source holds these as a separate data set.
Data set [6] relates to GM05757 human normal cells. The format is cell-based.
Data set [7] relates to NIH:OVCAR-3 ovarian cancer xenograft. On the set-up: species or system SCID mice. Conditions: mouse, in vivo.
The test system of data set [8] is MRC-5 human lung normal cells. Format: cell-based. Particulars: read-out: IC50 (agent concentration to kill 50% of untreated cells), MRC-5.
The test system of data set [9] is human normal cells (GM05757 and MRC-5). The format is cell-based. Conditions: read-out: IC50 toward human normal cells.
The conditions of data set [10]: mouse, in vivo, cited from earlier work.

Entries after “also recorded” stand apart in the source; their conditions may differ.

As for `Nc1cc(Br)c(Br)cc1N` [FMD-2Br-DAB, 4,5-dibromo-1,2-phenylenediamine], in the data set on MRC-5 human normal cells, the “caspase activation (apoptosis) in normal cells” value is given as “negligible caspase activation”. In addition, the “apoptosis in tumor tissue (TUNEL) vs untreated group” value in data set [1] is on record as “significant enhancement in apoptosis”. The IC50 in data set [2] (Homo sapiens, OVCAR-3, 72 h, read-out: IC50, NIH:OVCAR-3) was 175 µM; in data set [4], 15 to 75 µM. Further, the “overall physical toxicity in mice” value in [3] is given as “no overall physical toxicity”. Moreover, the “acute toxicity in mice (hepatotoxicity, nephrotoxicity, electrolytes)” value in data set [5] is on record as “no acute toxicity”. Also, in data set [6], the “increase of the GSH level in normal cells” value is listed as “about 40%”.

With `Nc1cc(I)c(I)cc1N` [FMD-2I-DAB, 4,5-diiodo-1,2-phenylenediamine], in the data set on MRC-5 human normal cells, the “caspase activation (apoptosis) in normal cells” value is reported as “negligible caspase activation”. Also, the “cisplatin-resistant ovarian (NIH:OVCAR-3) tumor growth vs control” value in [7] was “effectively suppressed”. Besides, the “apoptosis in tumor tissue (TUNEL) vs untreated group” value in data set [1] is listed as “significant enhancement in apoptosis; also recorded: most effective inducer of apoptosis”. Further, in [3], the “overall physical toxicity in mice” value is recorded as “no overall physical toxicity”. The IC50 in [4] lay within 15 to 75 µM. For the same compound, in data set [5], the “acute toxicity in mice (hepatotoxicity, nephrotoxicity, electrolytes)” value was “no acute toxicity”.

Regarding cisplatin, the “activation of caspase-3 and -7 in MRC-5 normal cells” value with MRC-5 human normal cells is on record as “significant activation”. The “NIH:OVCAR-3 cancer cells surviving high-dose treatment” value in data set [2] is “about 12%”. Also, the IC50 in data set [8] is roughly 6 µM. Further, the IC50 in [9] was no more than 10 µM. Also, in [10] (2.3 mg/kg), the “mean body weight compared to vehicle control” value was “significant decrease”. Further, in data set [10] (15 mg/kg), the “levels of blood urea nitrogen (BUN)” value was “significantly elevated” and the “mice that died within 5 days” value is “Half”.

The record behind these values is paper PMC4551467 (EBioMedicine, 2015).
